Values quoted from earlier work in article PMC4810081, “Venetoclax (ABT-199) Might Act as a Perpetrator in Pharmacokinetic Drug–Drug Interactions” (Pharmaceutics, 2016).

Biological target: T1, BCRP (Homo sapiens, UniProt Q9UNQ0)
T1 construct: expressed in transfected cells; host or cells: MDCKII-BCRP (gift of A. H. Schinkel and P. Borst)
Parameters: method as in PMID 20222053
Details: control compound; read-out: IC50 BCRP inhibition, control compound; cited from earlier work

T1 sequence (Q9UNQ0 whole entry): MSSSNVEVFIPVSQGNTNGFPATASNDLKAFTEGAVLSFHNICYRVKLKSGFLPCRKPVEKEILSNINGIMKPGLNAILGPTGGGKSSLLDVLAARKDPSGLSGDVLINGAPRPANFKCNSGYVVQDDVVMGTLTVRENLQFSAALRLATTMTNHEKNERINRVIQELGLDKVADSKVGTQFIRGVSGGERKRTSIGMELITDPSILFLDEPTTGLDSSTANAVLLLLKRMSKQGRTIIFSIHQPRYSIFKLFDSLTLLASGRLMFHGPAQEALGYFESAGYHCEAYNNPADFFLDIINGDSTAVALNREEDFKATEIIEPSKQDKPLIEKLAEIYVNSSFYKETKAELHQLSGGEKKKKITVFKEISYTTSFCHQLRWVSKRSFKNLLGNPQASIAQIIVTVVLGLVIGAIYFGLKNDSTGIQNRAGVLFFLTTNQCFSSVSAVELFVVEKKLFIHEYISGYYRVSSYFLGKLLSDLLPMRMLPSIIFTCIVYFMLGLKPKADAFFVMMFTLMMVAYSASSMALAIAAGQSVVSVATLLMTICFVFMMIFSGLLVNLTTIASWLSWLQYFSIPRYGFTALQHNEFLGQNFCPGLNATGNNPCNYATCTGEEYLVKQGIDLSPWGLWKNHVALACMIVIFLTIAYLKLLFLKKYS

SMILES: COc1ccc2c3c([nH]c2c1)[C@H](C=C(C)C)N1C(=O)[C@@H]2CCCN2C(=O)[C@@H]1C3 [FTC, fumitremorgin C]
- IC50: 700 ± 300 nM
